Results as given in patent US6716827B1, “Complexes for immobilizing isothiocyanate natural precursors in cyclodextrins, preparation and use” (Commissariat a l'Energie Atomique, priority 1998, dated 2004).

Columns and labels:
[1] = Solubility in water of benzyl isothiocyanate; type: physicochemical; settings: free compound, oily liquid
[2] = Solubility in aqueous solution of benzyl isothiocyanate formed by myrosinase in the α-cyclodextrin complex, followed by NMR; type: physicochemical; settings: complexed in α-cyclodextrin; formed by action of myrosinase on the glucosinolate complex; 50 mM deuterated phosphate buffer pH 6, 25° C.
Protocol: In this example, the inclusion complex formed in example 1 is converted into an inclusion complex of benzyl isothiocyanate in the cyclodextrin.
For this purpose, myrosinase is added to the solution of the complex prepared in example 1, then hydrolysis of the glucosinolate is followed under nuclear magnetic resonance.
The results are given in FIGS. 4, 5 and 6 which illustrate the NMR spectra obtained at 25° C. and 500 MHz, before the addition of myrosinase (FIG. 4), 1 hour after the addition of myrosinase (FIG. 5), and 17 hours after the addition of myrosinase (FIG. 6).

In the case of `S=C=NCc1ccccc1` [benzyl isothiocyanate], the solubility in water [1] is reported as “insoluble in water” and the “solubility in an aqueous solution” value [2] is reported as “soluble”.
